Five compounds from ChEMBL document CHEMBL5528087, “RNA-Small-Molecule Interaction: Challenging the "Undruggable" Tag” (J Med Chem, 2024) can be followed below.

The target of assay [1] is Quadruplex DNA. Description: Binding affinity to TERRA G-Quadruplex (unknown origin) assessed as dissociation constant. The format is nucleic-acid assay.
The test system of assay [2] is Quadruplex DNA. Description: Binding affinity to TERRA G-Quadruplex (unknown origin) assessed as melting temperature. The format is nucleic-acid assay.
Assay [3] deals with preQ1 riboswitch. Kind of assay: Binding affinity to Thermoanaerobacter tengcongensis 5-Cy5-PreQ1-RS RNA assessed as dissociation constant. The format is nucleic-acid assay, Caldanaerobacter subterraneus subsp. tengcongensis.
Assay [4] has as its target preQ1 riboswitch. Description: Binding affinity to Bacillus subtilis 5-Cy5-PreQ1-RS RNA assessed as dissociation constant. The format is nucleic-acid assay.
Assay [5] deals with T1, Non-structural protein 4b (Hepacivirus hominis, UniProt F5B4I0).
T1 sequence (F5B4I0 whole entry): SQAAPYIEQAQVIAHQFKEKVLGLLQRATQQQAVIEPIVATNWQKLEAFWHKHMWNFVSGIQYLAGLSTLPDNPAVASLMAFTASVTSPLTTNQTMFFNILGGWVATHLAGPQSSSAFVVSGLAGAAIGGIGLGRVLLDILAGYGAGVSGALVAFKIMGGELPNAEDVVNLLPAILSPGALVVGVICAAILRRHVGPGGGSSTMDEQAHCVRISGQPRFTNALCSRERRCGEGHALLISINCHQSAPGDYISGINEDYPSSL
Kind of assay: Binding affinity to Hepatitis C virus genotype 1 NS4B assessed as inhibition constant.

A short description of assay [6]: Binding affinity to SARS-Cov-2 RNA pseudoknot assessed as dissociation constant. Also on record: species or system Severe acute respiratory syndrome coronavirus 2.
The target of assay [7] is T2, Survival of motor neuron-related-splicing factor 30 (Homo sapiens) (UniProt O75940).
T2 sequence (whole entry): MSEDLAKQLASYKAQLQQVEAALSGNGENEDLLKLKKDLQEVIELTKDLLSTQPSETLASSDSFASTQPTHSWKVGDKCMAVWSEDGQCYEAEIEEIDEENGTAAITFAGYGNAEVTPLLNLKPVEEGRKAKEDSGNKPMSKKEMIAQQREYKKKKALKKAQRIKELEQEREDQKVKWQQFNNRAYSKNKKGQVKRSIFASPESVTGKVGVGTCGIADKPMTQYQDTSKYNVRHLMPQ
Kind of assay: Inhibition of SMNDC1 (unknown origin) assessed as fold increase at 40 uM.

`O=c1c2c(-c3ccco3)csc2nc2n1Cc1nc3scc(-c4ccco4)c3c(=O)n1C2`: the Kd (in general, the free concentration of one partner at which half of the binding sites on the other are occupied at equilibrium, for simple one-to-one binding) at Quadruplex DNA [1] came to 8.8 µM. For the same compound, the ΔTm (usually the shift of the melting midpoint relative to a reference) with Quadruplex DNA [2] is above 5 °C.
For the compound `NCCOc1ccc2oc3ccccc3c2c1`, the Kd on preQ1 riboswitch [3] is 0.457 µM; on preQ1 riboswitch [4], 0.534 µM.
For `CN(C)CCCNc1nc2ccc(N)cc2o1`, the Ki (commonly the equilibrium dissociation constant of an inhibitor or competing ligand from its target) in assay [5] was found to be 6 µM.
On to `CCOC(=O)c1ccccc1NC(=O)N1CCCN(Cc2csc(C)n2)CC1`, for which the Kd in assay [6] was found to be 210 µM.
Turning to `O=C(c1cnc(C(=O)c2c[nH]c3cc(O)ccc23)[nH]1)c1c[nH]c2ccccc12`, the fold change (FC) in assay [7] turned out to be 1.5.
